Results from patent US6162925A, “Antibiotic for methicillin resistant bacteria” (Research Corporation Tech., Inc., priority 1999, dated 2000).
In brackets after ≈: the same amount, converted by molar mass. Where two headings read alike, the source gives them in different places.

Assays:
Staphylococcus aureus 76 = experiment: MIC, broth microdilution (NCCLS), S. aureus 76; type: cell-based; conditions: read-out: Minimal Inhibitory Concentration (MIC)
Experimental: (§1) Test compounds were assayed against Staphylococcus aureus FDA 209P by the 10 fold agar disc diffusion assay on BHI-plates at pH=7 and pH=9 in accordance with the procedure from the National Committee for Clinical Laboratory Standards 1989. Susceptibility testing. A panel of 16 bacteria was used to evaluate the antimicrobial activity of the compounds (Table 2). The MIC of each antimicrobial agent was determined using a microdilution method according to NCCLS standards^1. Serial twofold dilutions of antibiotics were prepared in Mueller-Hinton broth (Difco Laboratories, Detroit, Mich.). Bacteria were grown to early log phase at 35° C. (1 hours) in Mueller-Hinton broth and cultures were diluted to achieve a final inoculum of 5×10^5 CFU per ml. Microtiter plates were incubated at 35° C. for 20 h and then were read using a Thermomax microplate reader (Molecular Devices, Sunnyvale, Calif.) and a microtiter plate reading mirror. The MIC was defined as the lowest concentration of antibiotic which inhibited the development of visible growth at the end of the incubation period. The standard reference strains were Staphyloccocus aureus ATCC […], Enterococcus faecalis ATCC 29212, E. faecium ATCC 35667, Escherichia coli ATCC 25922, and Pseudomonas aeruginosa ATCC 27853. Imipenem and vancomycin were used as antibiotic controls and values for reference strains were in accordance with the NCCLS.
(§2) Staphylococcus Methicillin

[1] = tested on: Escherichia coli ATCC 25922; experiment: MIC, broth microdilution (NCCLS), E. coli ATCC 25922; type: cell-based; conditions: read-out: Minimal Inhibitory Concentration (MIC)
Experimental: as §1

[2] = tested on: Enterococcus faecium efm040; experiment: MIC, broth microdilution (NCCLS), E. faecium efm040; type: cell-based; conditions: read-out: Minimal Inhibitory Concentration (MIC)
Experimental: as §1
Enterococcus Clinical isolate,
faecium efm040 U.S.A. resistant

[3] = tested on: Pseudomonas Aeruginosa ATCC 27853; experiment: MIC, broth microdilution (NCCLS), P. aeruginosa ATCC 27853; type: cell-based; conditions: read-out: Minimal Inhibitory Concentration (MIC)
Experimental: as §1

[4] = tested on: Enterococcus faecium BM4147; experiment: MIC, broth microdilution (NCCLS), E. faecium BM4147; type: cell-based; conditions: read-out: Minimal Inhibitory Concentration (MIC)
Experimental: as §1
(§3) Enterococcus Vancomycin
faecium BM4147 resistant, vanA

[5] = tested on: Staphylococcus haemolyticus UA281; experiment: MIC, broth microdilution (NCCLS), S. haemolyticus UA281; type: cell-based; conditions: read-out: Minimal Inhibitory Concentration (MIC)
Experimental: as §1, §2
haemolyticus UA281 resistant

[6] = tested on: Staphylococcus aureus sa ATCC 13709; experiment: MIC, broth microdilution (NCCLS), S. aureus sa ATCC 13709; type: cell-based; conditions: read-out: Minimal Inhibitory Concentration (MIC)
Experimental: as §1

[7] = tested on: Staphylococcus aureus COL; experiment: MIC, broth microdilution (NCCLS), S. aureus COL; type: cell-based; conditions: 20 h, read-out: Minimal Inhibitory Concentration (MIC)
Experimental: as §1, §2
aureus COL resistant, β-

[8] = tested on: Enterococcus faecium ATCC 35667; experiment: MIC, broth microdilution (NCCLS), E. faecium ATCC 35667; type: cell-based; conditions: read-out: Minimal Inhibitory Concentration (MIC)
Experimental: as §1
(§4) Enterococcus ATCC Reference strain

[9] = tested on: Enterococcus faecalis V583; experiment: MIC, broth microdilution (NCCLS), E. faecalis V583; type: cell-based; conditions: read-out: Minimal Inhibitory Concentration (MIC)
Experimental: as §1, §3
faecalis V583 resistant, vanB

[10] = tested on: Staphylococcus aureus ATCC 33593; experiment: MIC, broth microdilution (NCCLS), S. aureus ATCC 33593; type: cell-based; conditions: read-out: Minimal Inhibitory Concentration (MIC)
Experimental: as §1
Staphylococcus ATCC Methicillin
aureus ATCC 33593 resistant, β-

[11] = tested on: Staphylococcus aureus ATCC 29213; experiment: MIC, broth microdilution (NCCLS), S. aureus ATCC 29213; type: cell-based; conditions: read-out: Minimal Inhibitory Concentration (MIC)
Experimental: as §1
Staphylococcus ATCC Reference strain

[12] = tested on: Enterococcus faecalis ATCC 29212; experiment: MIC, broth microdilution (NCCLS), E. faecalis ATCC 29212; type: cell-based; conditions: read-out: Minimal Inhibitory Concentration (MIC)
Experimental: as §1, §4

[13] = tested on: Staphylococcus aureus COL8A; experiment: MIC, broth microdilution (NCCLS), S. aureus COL8A; type: cell-based; conditions: 20 h, read-out: Minimal Inhibitory Concentration (MIC)
Experimental: as §1, §2
aureus COL8A susceptible, […]

[14] = tested on: Staphylococcus aureus sa201; experiment: MIC, broth microdilution (NCCLS), S. aureus sa201; type: cell-based; conditions: read-out: Minimal Inhibitory Concentration (MIC)
Experimental: as §1
Staphylococcus Clinical isolate,
aureus sa201 Spain resistant, β-

[15] = tested on: Staphylococcus aureus PC1; experiment: MIC, broth microdilution (NCCLS), S. aureus PC1; type: cell-based; conditions: read-out: Minimal Inhibitory Concentration (MIC)
Experimental: as §1
Staphylococcus Type A βlactamase
aureus PC1 hyperproducer

[16] = cited from earlier work
[17] = basic aqueous solutions; hydrolytic opening of six-membered ring; cited from earlier work
[18] = Stability of cyclization product 29; type: physicochemical
Experimental: To a mixture of 28 (70 mg, 0.067 mmol, 1.0 eq) and anisole (0.1 mL) was added TFA (1.0 mL). the resulting mixture was stirred for 15 min at room temperature. The TFA was evaporated and coevaporated with CH2 Cl2 to dryness. The resulting residue was dried on vacuo for 2 h and triturated with ethyl ether to give a white solid. This white solid was dissolved in THF (1.5 mL). To this solution was added triethylamine (20 μL, 0.14 mmol, 2.0 eq). After stirring 10 min., the solvent was evaporated and the resulting residue was immediately purified by PTLC (silica gel, CH2 Cl2 : EtOAc: MeOH, 4:1:0.5) to give 40 mg (67%) of 29 as a white solid. This product was unstable with a tendency to form a bicycle by-product (t1/2 is about 1 day) and was used for the next step immediately. ^1 H NMR (300 MHz, CD3 Cl/D2 O vs TMS): δ1.62 (4H, m); 2.45 (2H, m); 2.76/2.78 (3H, s); 3.32 (1H, m); 3.70 (1H, m); 3.93 (4H, m); 5.17 (6H, m); 7.32 (20H, m) ppm. IR (NaCl, film): 3381, 3258, 2934, 1765, 1713, 1646, 1608, 1504, 1452, 1252, 1186, 1096, 1063 cm^-1. MS (ES+): Calcd. for (C45 H49 N9 O11 +H)=892.4. Found (M+H)=892.4; (M+H-108)=784.3.

[19] = tested on: Gram-positive and Gram-negative bacteria; conditions: S- versus R-configuration in the heterocyclic portion; cited from earlier work
[20] = Staphylococcus aureus, S. aureus 76, methicillin resistant, β-lactamase positive, 35° C., 20 h
[21] = ATCC25922, E. coli ATCC 25922, reference strain, 35° C., 20 h
[22] = E. faecium efm040, clinical isolate U.S.A., ampicillin resistant, 35° C., 20 h
[23] = ATCC27853, P. aeruginosa ATCC 27853, reference strain, 35° C., 20 h
[24] = E. faecium BM4147, vancomycin resistant, vanA, 35° C., 20 h
[25] = S. haemolyticus UA281, methicillin resistant, 35° C., 20 h
[26] = ATCC13709, S. aureus sa ATCC 13709, Smith strain, 35° C., 20 h
[27] = S. aureus COL, methicillin resistant, β-lactamase negative, 35° C.
[28] = ATCC35667, E. faecium ATCC 35667, reference strain, 35° C., 20 h
[29] = E. faecalis V583, vancomycin resistant, vanB, 35° C., 20 h
[30] = ATCC33593, S. aureus ATCC 33593, methicillin resistant, β-lactamase positive, 35° C., 20 h
[31] = ATCC29213, S. aureus ATCC 29213, reference strain, 35° C., 20 h
[32] = ATCC29212, E. faecalis ATCC 29212, reference strain, 35° C., 20 h
[33] = S. aureus sa201, clinical isolate Spain, methicillin resistant, β-lactamase positive, 35° C., 20 h
[34] = S. aureus PC1, Type A βlactamase hyperproducer, 35° C., 20 h

SMILES | MIC (Staphylococcus aureus 76; [20]) [µg/mL] | MIC [1, 21] [µg/mL] | MIC [2, 22] [µg/mL] | MIC [3, 23] [µg/mL] | MIC [4, 24] [µg/mL] | MIC [5, 25] [µg/mL] | MIC [6, 26] [µg/mL] | MIC [7, 27] [µg/mL] | MIC [8, 28] [µg/mL] | MIC [10, 30] [µg/mL] | MIC [11, 31] [µg/mL] | MIC [12, 32] [µg/mL] | MIC [13] [µg/mL] | MIC [14, 33] [µg/mL] | MIC [15, 34] [µg/mL] | other results
COC(=O)NC1=NC(=O)C(N(C)C(=O)C[C@@H](N)CCCNC(=N)N)CN1 (some centres unmarked) [Compound 73c, 3S,5'S/R-3-amino-6-[(aminoiminomethyl)amino]-N-(2-methoxycarbonylamino-1,4,5,6-tetrahydro-4-oxo-5-pyrimidinyl)-N-methyl-hexanamide] | 64 (≈ 173 µM) | > 256 | > 256 | > 256 | 64 (≈ 173 µM) | 256 (≈ 691 µM) | 32 (≈ 86.4 µM) | 64 (≈ 173 µM) | 128 (≈ 346 µM) | 64 (≈ 173 µM) | 64 (≈ 173 µM) | 64 (≈ 173 µM) | 64 (≈ 173 µM) | 64 (≈ 173 µM) | 32 (≈ 86.4 µM) | MIC [9, 29]: 64 µg/mL (≈ 173 µM)
C[C@@H](O)[C@H]1C(=O)N2C(C(=O)O)=C(SCCN=CN)C[C@H]12 [Imipenem] | 8 (≈ 26.7 µM) | ≤ 0.25 | > 128 | 1 (≈ 3.34 µM) | 8 (≈ 26.7 µM) | 64 (≈ 214 µM) | ≤ 0.25 | 32 (≈ 107 µM) | 4 (≈ 13.4 µM) | 8 (≈ 26.7 µM) | ≤ 0.25 | 0.5 (≈ 1.67 µM) | ≤ 0.25 | 64 (≈ 214 µM) | ≤ 0.25 | MIC [9, 29]: 0.5 µg/mL (≈ 1.67 µM)
CN1C(=O)C[C@H](CCCNC(=N)N)NC(=O)[C@H]1CNC(=N)NC(N)=O [TAN-1057C] |  |  |  |  |  |  |  |  |  |  |  |  |  |  |  | conversion upon standing in water [16]: rapidly convert to a mixture of TAN-1057A/B upon standing in water
CN(C(=O)C[C@@H](N)CCCNC(=N)N)[C@@H]1CNC(NC(N)=O)=NC1=O [TAN-1057B] |  |  |  |  |  |  |  |  |  |  |  |  |  |  |  | loss of antibacterial activity in basic aqueous solutions [17]: gradually lost their antibacterial activities in basic aqueous solutions
CN(C(=O)C[C@H](CCCN(C(=N)NC(=O)OCc1ccccc1)C(=O)OCc1ccccc1)NC(=O)OCc1ccccc1)C1CNC(NC(=O)NC(=O)OCc2ccccc2)=NC1=O (some centres unmarked) [Compound 29] |  |  |  |  |  |  |  |  |  |  |  |  |  |  |  | t1/2 (tendency to form a bicycle by-product) [18]: about 1 day
CN[C@H](CC(C)C)C(=O)N[C@H]1C(=O)N[C@@H](CC(N)=O)C(=O)N[C@H]2C(=O)N[C@H]3C(=O)N[C@H](C(=O)N[C@H](C(=O)O)c4cc(O)cc(O)c4-c4cc3ccc4O)[C@H](O)c3ccc(c(Cl)c3)Oc3cc2cc(c3O[C@@H]2O[C@H](CO)[C@@H](O)[C@H](O)[C@H]2O[C@H]2C[C@](C)(N)[C@H](O)[C@H](C)O2)Oc2ccc(cc2Cl)[C@H]1O [Vancomycin, vancomycin] |  |  |  |  |  |  |  |  |  |  |  |  | ≤ 0.25 |  |  | MIC (Staphylococcus aureus 76; Staphylococcus aureus, 76, 20 h): ≤ 0.25 µg/mL; MIC ([1]; ATCC25922, 20 h): > 128 µg/mL; MIC ([2]; EFM040, 20 h): ≤ 0.25 µg/mL; MIC ([3]; ATCC27853, 20 h): > 128 µg/mL; MIC ([4]; BM4147, 20 h): > 128 µg/mL; MIC ([5]; UA281, 20 h): 1 µg/mL (≈ 0.69 µM); MIC ([6]; ATCC13709, 20 h): ≤ 0.25 µg/mL; MIC [7]: 1 µg/mL (≈ 0.69 µM); MIC ([8]; ATCC35667, 20 h): ≤ 0.25 µg/mL; MIC ([9]; V583, 20 h): 16 µg/mL (≈ 11 µM); MIC ([10]; ATCC33593, 20 h): 0.5 µg/mL (≈ 0.345 µM); MIC ([11]; ATCC29213, 20 h): ≤ 0.25 µg/mL; MIC ([12]; ATCC29212, 20 h): 1 µg/mL (≈ 0.69 µM); MIC ([14]; SA201, 20 h): 0.5 µg/mL (≈ 0.345 µM); MIC ([15]; PC1, 20 h): ≤ 0.25 µg/mL
CC(=O)NC1=NC(=O)C(N(C)C(=O)C[C@@H](N)CCCNC(=N)N)CN1 (some centres unmarked) [Compound 73a, 3S,5'S/R-3-amino-6-[(aminoiminomethyl)amino]-N-(2-acetylamino-1,4,5,6-tetrahydro-4-oxo-5-pyrimidinyl)-N-methyl-hexanamide] | 16 (≈ 45.1 µM) | 128 (≈ 361 µM) | 256 (≈ 722 µM) | 256 (≈ 722 µM) | 128 (≈ 361 µM) | 128 (≈ 361 µM) | 16 (≈ 45.1 µM) | 16 (≈ 45.1 µM) | 64 (≈ 181 µM) | 8 (≈ 22.6 µM) | 16 (≈ 45.1 µM) | 32 (≈ 90.3 µM) | 16 (≈ 45.1 µM) | 16 (≈ 45.1 µM) | 8 (≈ 22.6 µM) | 
CN1C(=O)C[C@H](CCCNC(=N)N)NC(=O)[C@@H]1CNC(=N)NC(N)=O [TAN-1057D] |  |  |  |  |  |  |  |  |  |  |  |  |  |  |  | conversion upon standing in water [16]: rapidly convert to a mixture of TAN-1057A/B upon standing in water; relative antibacterial activity of stereoisomers [19]: more active than TAN-1057 B and C
